Laboratory results published in patent US10512652B2, “Use of cymanquine compounds as antimalarial agents” (priority 2015, dated 2019).

Experiments:
[1] = Cyclic voltammetry, anodic oxidation; assay type: physicochemical; conditions: irreversible, anodic peak potential, dichloromethane/0.05 M [NBu4][B(C6F5)4]
Protocol: Electrochemical studies were carried out. The electrolyte solution used for these studies, namely dichloromethane with 0.05 M [NBu4][B(C6F5)4] as the supporting electrolyte, is known to provide an optimum medium for the electrochemical oxidation of compounds containing the MnCp(CO)3 (Cp=η^5-C5H5) backbone (Laws et al., J. Am. Chem. Soc. 2008, 130, 9859). The potentials given here are referred to the ferrocene/ferrocenium reference couple. The experiments were carried out in a controlled atmosphere which minimizes exposure to oxygen and water. We refer to two types of standard electrochemical techniques that are commonly described in books on electrochemistry: cyclic voltammetry and bulk electrolysis (Bard, A. J.; Faulkner, L. R. Electrochemical Methods, John Wiley & Sons, New York, 2001, second edition) The former is useful for the analytical and gross mechanistic aspects of the electron-transfer properties of a compound, whereas the latter is most often employed for the electro-synthetic function of making isolable quantities of electrochemical oxidation or reduction products.
Anodic oxidation of the three compounds was investigated. […]
Table of potentials (vs ferrocene/ferrocenium (FcH)) measured by cyclic voltammetry for oxidation of compounds 3, 4, and 5 in dichloromethane/0.05 M [NBu4][B(C6F5)4]. […]

[2] = tested on: P. falciparum strain D10ydhod; assay: [3H]-hypoxanthine incorporation growth inhibition, strain D10ydhod; assay type: cell-based, Plasmodium falciparum; conditions: strain D10ydhod (expresses S. cerevisiae dihydroorotate dehydrogenase)
Protocol: (§1) P. falciparum strains were cultured under standard conditions in RPMI1640 medium supplemented with 0.5% Albumax in 90% N2, 5% 02 and 5% CO2. A modified version of the [^3H]-hypoxanthine incorporation method was employed for assessing growth inhibition by the inhibitor compounds. Briefly, P. falciparum strain Dd2 or strain D10ydhod (this strain express the Saccharomyces cerevisiae dihydroorotate dehydrogenase enzyme which renders mitochondrial electron transport nonessential in the parasite) parasites were seeded at 2% parasitemia in 96-well plates and treated with varying concentration of the inhibitors as well as the solvent (DMSO) for 24 h. [^3H]-Hypoxanthine was added to the cultures and incubation was continued for an additional 24 h. Incorporation of [^3H]-hypoxanthine by the parasites was determined by liquid scintillation. Growth inhibition was assessed as decrease in [^3H]-hypoxanthine incorporation in treated parasites relative to the control parasites treated with the solvent. The dose-response data were analyzed using nonlinear regression analysis (Prism GraphPad), and the EC50 was derived using an inhibitory sigmoid maximum effect (Emax) model. Each assay is completed in triplicate and the average EC50 was calculated. […]

P. falciparum strain Dd2 = assay: [3H]-hypoxanthine incorporation growth inhibition, strain Dd2; assay type: cell-based, Plasmodium falciparum; conditions: multidrug resistant strain Dd2; 24 h treatment + 24 h [3H]-hypoxanthine; average of triplicate
Protocol: as §1

## cymanquine [Compound 3]
[1]; first oxidation
  Ep(1): 0.82 V vs FcH
[1]; second oxidation
  Ep(2): 1.25 V vs FcH
[2]
  potency against strain D10ydhod compared with strain Dd2: Equivalent potency
P. falciparum strain Dd2
  EC50: ~10.8 nM
